{"source": "paper PMC9898749", "about": "“Cryo-EM structure of the plant nitrate transporter AtCLCa reveals characteristics of the anion-binding site and the ATP-binding pocket” (The Journal of Biological Chemistry, 2022)", "key": {"AtCLCa": {"target": "T1, AtCLCa (Arabidopsis thaliana, UniProt P92941)", "T1 construct": "gene CLC-A; HEK293F (BacMam); purified in GDN; homodimer; modelled residues 53-626, 636-737, 744-766", "T1 sequence (P92941 1-775)": "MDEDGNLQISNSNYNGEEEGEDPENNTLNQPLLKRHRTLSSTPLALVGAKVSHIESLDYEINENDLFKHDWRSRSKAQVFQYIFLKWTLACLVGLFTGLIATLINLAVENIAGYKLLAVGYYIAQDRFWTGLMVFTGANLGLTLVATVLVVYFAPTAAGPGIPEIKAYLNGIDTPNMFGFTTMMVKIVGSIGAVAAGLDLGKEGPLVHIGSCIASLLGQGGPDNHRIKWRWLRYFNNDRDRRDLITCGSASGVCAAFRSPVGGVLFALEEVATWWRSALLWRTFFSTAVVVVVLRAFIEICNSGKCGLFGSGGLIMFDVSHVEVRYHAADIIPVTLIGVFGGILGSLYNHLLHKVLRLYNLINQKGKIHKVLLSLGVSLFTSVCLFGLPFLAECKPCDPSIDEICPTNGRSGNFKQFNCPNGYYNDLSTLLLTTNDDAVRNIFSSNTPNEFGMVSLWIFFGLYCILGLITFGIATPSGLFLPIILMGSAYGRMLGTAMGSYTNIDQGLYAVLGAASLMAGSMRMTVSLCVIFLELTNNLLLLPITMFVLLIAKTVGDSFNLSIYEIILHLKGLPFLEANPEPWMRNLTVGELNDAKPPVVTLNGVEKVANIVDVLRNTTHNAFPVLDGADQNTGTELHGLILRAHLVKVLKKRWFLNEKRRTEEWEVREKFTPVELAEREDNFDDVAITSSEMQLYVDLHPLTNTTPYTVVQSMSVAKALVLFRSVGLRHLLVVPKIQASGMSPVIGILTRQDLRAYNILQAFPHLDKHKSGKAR", "test": "cryo-EM structure, […] Å", "type": "binding", "conditions": "150 mM NaNO3; GDN detergent; pH 7.5; three anion sites (external, central, internal) in transport pathway; identity assigned from buffer; nitrates placed by docking overlapping EM densities"}, "[1]": {"target": "the molecule itself", "test": "cryo-EM structure; AtCLCa 4.2 mg/ml in 20 mM Hepes pH 7.5, 150 mM NaNO3, 0.06% GDN; endogenous Mg2+-ATP bound; C2 symmetry imposed; 2.8 Å"}}}
{"molecule": "O=[N+]([O-])O", "note": "[nitrate]", "values": [{"measurement": "cryo-EM structure, 2.8 Å", "setting": "AtCLCa", "result": "The ions are most likely nitrate because we purified the protein in a buffer"}]}
{"molecule": "Arabidopsis thaliana CLCa (natural protein, UniProt P92941 1-775, looked up, AtCLCa, Arabidopsis thaliana chloride channel protein CLC-a, nitrate/proton antiporter; NCBI NP_198905.1; full length (residues 1-775; modelled residues 53-626, 636-737, 744-766); A C-terminal 3C cleavage site stands between the protein and the strep tag; Copurified with endogenous Mg2+-ATP; purified in 150 mM sodium nitrate; also called AtCLCa; source: HEK293F cells, BacMam system, purified …) MDEDGNLQISNSNYNGEEEGEDPENNTLNQPLLKRHRTLSSTPLALVGAKVSHIESLDYEINENDLFKHDWRSRSKAQVFQYIFLKWTLACLVGLFTGLIATLINLAVENIAGYKLLAVGYYIAQDRFWTGLMVFTGANLGLTLVATVLVVYFAPTAAGPGIPEIKAYLNGIDTPNMFGFTTMMVKIVGSIGAVAAGLDLGKEGPLVHIGSCIASLLGQGGPDNHRIKWRWLRYFNNDRDRRDLITCGSASGVCAAFRSPVGGVLFALEEVATWWRSALLWRTFFSTAVVVVVLRAFIEICNSGKCGLFGSGGLIMFDVSHVEVRYHAADIIPVTLIGVFGGILGSLYNHLLHKVLRLYNLINQKGKIHKVLLSLGVSLFTSVCLFGLPFLAECKPCDPSIDEICPTNGRSGNFKQFNCPNGYYNDLSTLLLTTNDDAVRNIFSSNTPNEFGMVSLWIFFGLYCILGLITFGIATPSGLFLPIILMGSAYGRMLGTAMGSYTNIDQGLYAVLGAASLMAGSMRMTVSLCVIFLELTNNLLLLPITMFVLLIAKTVGDSFNLSIYEIILHLKGLPFLEANPEPWMRNLTVGELNDAKPPVVTLNGVEKVANIVDVLRNTTHNAFPVLDGADQNTGTELHGLILRAHLVKVLKKRWFLNEKRRTEEWEVREKFTPVELAEREDNFDDVAITSSEMQLYVDLHPLTNTTPYTVVQSMSVAKALVLFRSVGLRHLLVVPKIQASGMSPVIGILTRQDLRAYNILQAFPHLDKHKSGKAR", "values": [{"measurement": "stoichiometry N", "setting": "[1]", "result": 2}]}
